The test system of assay [1] is MCa mammary carcinoma. As to the kind of experiment: Intramuscular tumor growth in mice bearing MCa mammary carcinoma. It counts as in vivo, CBA mice. Particulars: for Primary tumor weight % Inhibition / Primary tumor weight mg ± S.E.: 24 hrs after last treatment, hydrochloride. The method, then:
The antitumor activity was examined in CBA mice bearing the MCa mammary carcinoma tumor or in C57BL mice inoculated with B-16 melanoma. The doses tested, 5 and 25 mg/kg bodyweight/day, given i.v. on days 1, 5, 9, 13 after tumor implantation were devoid of severe toxicity.
(§1) ^a Groups of 7 CBA mice, inoculated i.m. into the calf of the left
(§2) hind leg with 10^6 viable MCa mammary carcinoma cells on day 0, were
(§3) given i.v. the test compounds (saline for controls) on days 1, 5, 9, 13.
^b Evaluated 24 hrs after the last treatment. The tumor growth was
estimated by calliper measurements taking tumor density equal to 1 and
using the formula: tumor weight = (π/6)xA^2 xB, with A and B as tw
perpendicular axes (A<B).

For assay [2], the system named is MCa mammary carcinoma. As to the kind of experiment: Lung metastases development in mice bearing MCa mammary carcinoma. The assay is classed as in vivo, CBA mice. Particulars: for Animals without macroscopically detectable lung metastases % / lung metastases % Inhibition / lung metastases, mean: 25 mg/kg i.v. days 1, 5, 9, 13, evaluated day 23, hydrochloride. The method, then:
| ^a Groups of 7 CBA mice, inoculated i.m. into the calf of the left | hind leg with 10^6 viable MCa mammary carcinoma cells on day 0, were | given i.v. 25 mg/kg of each test compound (saline for controls) on days 1 | 5, 9, 13. Lung metastases evaluation was performed on the freshly removed | lung tissue immediately after killing on day 23 by using a low power | stereo microscope. | ^b Animals without macroscopically detectable lung metastatic nodules

The next assay concerns melanoma B-16. As to the kind of experiment: Lung metastases development in mice bearing melanoma B-16. It counts as in vivo, C57BL/6 mice. Particulars: for Animals without metastases % / Number of metastatic nodules/mouse % inhibition / Number of metastatic nodules/mouse mean (min-max): counted day 30; for reduction of lung metastases to a fraction of the number in untreated control groups: i.v. administration on day 4. The protocol:
^a Groups of 8 C57BL/6 mice (5-6 months old), inoculated i.v. with
10^5 melanoma B16 cells on day 0, were given i.v. 25 mg/kg of each
test compound (saline for controls) on days 4 or 7.
Macroscopically detectable lung metastases were counted on day 30.

In another assay the test system is Influenza A virus H3N2. The assay is classed as cell-based. Particulars: MDCK cells 10^4 cells/100 μL/well.
Assay [3] has as its system MCa mammary carcinoma. As to the kind of experiment: Survival time of mice bearing MCa mammary carcinoma. The assay is classed as in vivo, CBA mice. Particulars: hydrochloride. The method, then:
as §1, §2, §3
^b Survival time was recorded as the number of days of survival of
each mouse from the tumor implantation.

The subject of the next assay is anti-HgG antibodies. As to the kind of experiment: Immunoadjuvant activity in rabbits immunized with human gamma globulin (HgG). The assay is classed as in vivo, New Zealand rabbits. Particulars: 0.3 mg i.v. in PBS three days after immunogen; versus controls immunized with HgG in incomplete Freund's adjuvant. The method, then:
The immunostimulating property of Isomer 1 and Isomer 2 of D,L(2-adamantyl-)-glycyl-L-alanyl-D-isoglutamine was tested in rabbits immunized with human gamma globulin (HgG).
New Zealand rabbits (five per group) were immunized s.c. with 0.5 mg of HgG in incomplete Freund's adjuvant. Isomer 1/Isomer 2 (0.3 mg) was administered i.v. in phosphate buffered saline (PBS) three days after immunogen. The formation of anti-HgG antibodies was followed by a solid phase radioimmunoassay method to provide a quantitative measure of anti-HgG antibodies in rabbit sera. Serum antibody content (mg/mL) was determined by parallel line bioassay method, using >>SIGMA<< antihuman IgG (whole molecule) as a standard.

The subject of another assay is Influenza A virus H1N1. It counts as cell-based. Particulars: MDCK cells 10^4 cells/100 μL/well.
The mark [4] stands for this setting: 25 mg/kg i.v. on day +4, hydrochloride.
[5] abbreviates: 25 mg/kg i.v. on day +7, hydrochloride.

Several values for one entry are separate records, joined by “and”; a condition that tells them apart may be missing. Equal values may be shown once. Read-outs that look alike come from different tables or passages of the source.

For `C[C@H](NC(=O)C(N)C1C2CC3CC(C2)CC1C3)C(=O)N[C@H](CCC(=O)O)C(N)=O.Cl` (single isomer, unassigned; isomer 2) [Isomer 2, D,L-(2-Adamantyl-)-glycyl-L-alanyl-D-isoglutamine hydrochloride], the “reduction of the volume of the intramuscular tumor” value with MCa mammary carcinoma [1] (5 mg/kg bodyweight/day i.v., 24 hours after the last day of treatment) came to 44%. Besides, in the assay on MCa mammary carcinoma [1] (5 mg/kg i.v. days 1, 5, 9, 13), the “Primary tumor weight % Inhibition” value was -44% and the “Primary tumor weight mg ± S.E.” value is recorded as 1076 ± 132 mg. In the assay on MCa mammary carcinoma [1] (25 mg/kg i.v. days 1, 5, 9, 13), the “Primary tumor weight % Inhibition” value was -19% and the “Primary tumor weight mg ± S.E.” value is recorded as 1559 ± 177 mg. For the same molecule, the “spontaneous dissemination of tumor to the lungs, % of controls” value with MCa mammary carcinoma [2] (25 mg/kg bodyweight/day i.v.) is 24 % of controls. In the assay on MCa mammary carcinoma [2], the “Animals without macroscopically detectable lung metastases %” value was 57.1% and 57%; the “lung metastases % Inhibition” value is given as -76%; the “lung metastases, mean” value was found to be 1.14. Also, the “Animals without metastases %” value in the assay with melanoma B-16 (25 mg/kg i.v. on day +4) is 37%. In the assay with melanoma B-16 (setting [4]), the “Number of metastatic nodules/mouse % inhibition” value is given as -69% and the “Number of metastatic nodules/mouse mean (min-max)” value is recorded as 0.97 (0-2). In the assay on melanoma B-16 (setting [5]), the “Animals without metastases %” value turned out to be 28%, the “Number of metastatic nodules/mouse % inhibition” value was -48% and the “Number of metastatic nodules/mouse mean (min-max)” value is 1.38 (0-4). Further, the “reduction of lung metastases to a fraction of the number in untreated control groups” value with melanoma B-16 is reported as 1/3. The “MIC (minimum inhibitory concentration)” value against Influenza A virus H3N2 (hydrochloride) is 50 µg. Also, in the assay on MCa mammary carcinoma [3] (5 mg/kg i.v. days 1, 5, 9, 13), the “Survival time % Increase” value was “+22%” and the “Survival time (days) mean (min-max)” value is 27.4 (18-40) days. Further, in the assay on MCa mammary carcinoma [3] (25 mg/kg i.v. days 1, 5, 9, 13), the “Survival time % Increase” value is “+32%” and the “Survival time (days) mean (min-max)” value was 29.7 (18-40) days. Further, in the assay on anti-HgG antibodies, the “Antibody formation against HgG” value is recorded as “significantly enhanced”. Further, in the assay on Influenza A virus H1N1 (hydrochloride), the “MIC (minimum inhibitory concentration)” value was 100 µg.
Turning to `C[C@H](NC(=O)C(N)C1C2CC3CC(C2)CC1C3)C(=O)N[C@H](CCC(=O)O)C(N)=O.Cl` (single isomer, unassigned; isomer 1) [Isomer 1, D,L-(2-Adamantyl-)-glycyl-L-alanyl-D-isoglutamine hydrochloride], in the assay on MCa mammary carcinoma [1] (5 mg/kg i.v. days 1, 5, 9, 13), the “Primary tumor weight % Inhibition” value is -28% and the “Primary tumor weight mg ± S.E.” value worked out at 1387 ± 224 mg. In addition, in the assay on MCa mammary carcinoma [1] (25 mg/kg i.v. days 1, 5, 9, 13), the “Primary tumor weight % Inhibition” value is listed as -21% and the “Primary tumor weight mg ± S.E.” value was 1522 ± 182 mg. Further, in the assay with MCa mammary carcinoma [2], the “Animals without macroscopically detectable lung metastases %” value came to 14.3%; the “lung metastases % Inhibition” value is -43%; the “lung metastases, mean” value is 2.71. For the same molecule, the “Animals without metastases %” value with melanoma B-16 (25 mg/kg i.v. on day +4) was determined as 37%. In the assay on melanoma B-16 (setting [4]), the “Number of metastatic nodules/mouse % inhibition” value was -68% and the “Number of metastatic nodules/mouse mean (min-max)” value is listed as 1.0 (0-2). In addition, in the assay on melanoma B-16 (setting [5]), the “Animals without metastases %” value amounted to 37%, the “Number of metastatic nodules/mouse % inhibition” value is on record as -76% and the “Number of metastatic nodules/mouse mean (min-max)” value was 0.64 (0-1). In addition, the “reduction of lung metastases to a fraction of the number in untreated control groups” value in the assay on melanoma B-16 is 1/3. Besides, the “MIC (minimum inhibitory concentration)” value against Influenza A virus H3N2 (hydrochloride) is over 200 µg. Besides, in the assay with MCa mammary carcinoma [3] (5 mg/kg i.v. days 1, 5, 9, 13), the “Survival time % Increase” value is reported as “+10%” and the “Survival time (days) mean (min-max)” value is 24.6 (18-31) days. Further, in the assay with MCa mammary carcinoma [3] (25 mg/kg i.v. days 1, 5, 9, 13), the “Survival time % Increase” value was “+13%” and the “Survival time (days) mean (min-max)” value is 25.4 (15-40) days. Besides, the “MIC (minimum inhibitory concentration)” value against Influenza A virus H1N1 (hydrochloride) was 12.5 µg.
In the case of `NC12CC3CC(CC(C3)C1)C2` [Symmetrel, amantadine, reference compound], the “MIC (minimum inhibitory concentration)” value in the assay with Influenza A virus H3N2 and with Influenza A virus H1N1 was under 12.5 µg each time.
